Results: patent US12264146B2, “Rho kinase inhibitor, method for preparing same and uses thereof” (BEIJING INCREASE INNOVATIVE DRUG CO., LTD., priority 2018, dated 2025)
Structures can show the parent of a compound that is named as a salt.

Assays:
endothelin (ET-1) = assay: Expression of endothelin (ET-1) in EA.Hy926 endothelial cells, detection kit; format: cell-based, human; details: 48 h
Method: (§1) Commercially available cytokine kits were used to detect the effects of the compounds of the present application on vascular endothelium-derived contracting factor endothelin, vascular endothelium-derived relaxing factor endothelial nitric oxide synthase, nitric oxide, and prostacyclin factor. The detection was performed according to the kit instructions. When testing the effect of the compound of the present application on cytokines, a normal control group, a fasudil hydrochloride group, and high-, medium- and low-dose groups of the compounds of the present application were set up for testing. The fasudil hydrochloride used in this test example was purchased from Beijing Sihuan Pharmaceutical Co., Ltd., with the SFDA approval number of H20173349. The EA.Hy926 cells used in this test example were purchased from Suzhou Beina Chuanglian Biotechnology Co., Ltd.
EA.Hy926 cells were taken and inoculated in a 96-well plate at 5×10^4 cells/mL, 100 μL per well, and cultured adherently for 24 hours, then the test compound prepared in DMEM medium was added, and an equal volume of DMEM medium was added in the normal control group, then the cells were cultured at 37° C. for 48 hours, and then the cell supernatant was taken and placed in an EP tube, and centrifuged at 3000 r/min, 4° C. for 15 min. The resulting cell supernatant was transferred to a new EP tube, diluted twice with culture medium, and detected according to the instruction of the human endothelin detection kit (purchased from Wuhan Boster Biological Engineering Co., Ltd., batch number 59113731009), and the detection results were shown in Table 2.

[1] = system: endothelial nitric oxide synthase (eNOS); assay: Endothelial nitric oxide synthase (eNOS) in EA.Hy926 endothelial cells, detection kit; format: cell-based; details: EA.Hy926 cell supernatant, 24 h
Method: as §1
Detection conditions: EA.Hy926 cells were inoculated at 1×10^5 […] in a 96-well plate, 100 μL per well, and cultured adherently for 24 hours, then the test compound prepared with DMEM medium was added, the normal control group was added with an equal volume of DMEM medium, then the cells were cultured for 24 hours at 37° C., and then the cell supernatant was taken and placed in an EP tube, and centrifuged at 3000 r/min and 4° C. for 15 minutes, the resulting supernatant was transferred to a new EP tube, diluted 3 times, and detected according to the instruction of eNOs detection kit (purchased from Wuhan Elabscience Biotechnology Co., Ltd., Cat. No. AK0017OCT12013), and the detection results were shown in Table 4.

## O=S(=O)(c1cccc2cnccc12)N1CCCNCC1 [Fasudil hydrochloride, reference compound]
Endothelin (ET-1); 0.4 μM, EA.Hy926 cell supernatant
  expression of endothelin in endothelial cells: Detection result of test compound at low dose (0.4 μM): 254.29 ± 3.35 pg/mL
Endothelin (ET-1); 2 μM, EA.Hy926 cell supernatant
  expression of endothelin in endothelial cells: Detection result of test compound at medium dose (2 μM): 252.58 ± 3.92 pg/mL
Endothelin (ET-1); 10 μM, EA.Hy926 cell supernatant
  expression of endothelin in endothelial cells: Detection result of test compound at high dose (10 μM): 325.69 ± 9.78 pg/mL
Endothelin (ET-1); high, medium and low doses
  effect on the expression and secretion of endothelin (in words): significantly promote the expression and secretion of endothelin
[1]; 0.4 μM
  expression of endothelial nitric oxide synthase in endothelial cells: Detection result of test compound at low dose (0.4 μM): 2810.61 ± 13.02 pg/mL
[1]; 2 μM
  expression of endothelial nitric oxide synthase in endothelial cells: Detection result of test compound at medium dose (2 μM): 2648.66 ± 9.59 pg/mL
[1]; 10 μM
  expression of endothelial nitric oxide synthase in endothelial cells: Detection result of test compound at high dose (10 μM): 2636.14 ± 188.26 pg/mL
